Results as given in US20070037752A1, “Novel alanyl-amino peptidase inhibitors for functionally influencing different cells and treating immunological, inflammatory, neuronal, and other diseases” (priority 2003, published 2007).
Read-outs that look alike come from different tables or passages of the source.

Target: alanyl aminopeptidases (APN) (Homo sapiens, UniProt P15144)
Assay: Inhibition of alanyl aminopeptidase enzymatic activity, fluorogenic substrate (Ala)2-rhodamine 110
Type: biochemical
Description: The inhibition characteristics measured are referred to as IC-50 values or ID50 values (the latter marked with “*”) for said enzyme. The enzymatic activity was determined by means of the fluorogenic substrate/product (Ala)2-rhodamine 110.

[1] = Table 3, starred values = ID50, read-out: ID50 APN (values marked with *)
[2] = Table 4, unstarred values, read-out: IC50APN
[3] = Table 3, unstarred values, read-out: IC50APN
[4] = Table 9, unstarred values, read-out: IC50APN
[5] = Table 8, unstarred values, read-out: IC50APN
[6] = Table 4, starred values = ID50, read-out: ID50 APN (values marked with *)

Sequence of alanyl aminopeptidases (APN) (P15144 whole entry, species assumed): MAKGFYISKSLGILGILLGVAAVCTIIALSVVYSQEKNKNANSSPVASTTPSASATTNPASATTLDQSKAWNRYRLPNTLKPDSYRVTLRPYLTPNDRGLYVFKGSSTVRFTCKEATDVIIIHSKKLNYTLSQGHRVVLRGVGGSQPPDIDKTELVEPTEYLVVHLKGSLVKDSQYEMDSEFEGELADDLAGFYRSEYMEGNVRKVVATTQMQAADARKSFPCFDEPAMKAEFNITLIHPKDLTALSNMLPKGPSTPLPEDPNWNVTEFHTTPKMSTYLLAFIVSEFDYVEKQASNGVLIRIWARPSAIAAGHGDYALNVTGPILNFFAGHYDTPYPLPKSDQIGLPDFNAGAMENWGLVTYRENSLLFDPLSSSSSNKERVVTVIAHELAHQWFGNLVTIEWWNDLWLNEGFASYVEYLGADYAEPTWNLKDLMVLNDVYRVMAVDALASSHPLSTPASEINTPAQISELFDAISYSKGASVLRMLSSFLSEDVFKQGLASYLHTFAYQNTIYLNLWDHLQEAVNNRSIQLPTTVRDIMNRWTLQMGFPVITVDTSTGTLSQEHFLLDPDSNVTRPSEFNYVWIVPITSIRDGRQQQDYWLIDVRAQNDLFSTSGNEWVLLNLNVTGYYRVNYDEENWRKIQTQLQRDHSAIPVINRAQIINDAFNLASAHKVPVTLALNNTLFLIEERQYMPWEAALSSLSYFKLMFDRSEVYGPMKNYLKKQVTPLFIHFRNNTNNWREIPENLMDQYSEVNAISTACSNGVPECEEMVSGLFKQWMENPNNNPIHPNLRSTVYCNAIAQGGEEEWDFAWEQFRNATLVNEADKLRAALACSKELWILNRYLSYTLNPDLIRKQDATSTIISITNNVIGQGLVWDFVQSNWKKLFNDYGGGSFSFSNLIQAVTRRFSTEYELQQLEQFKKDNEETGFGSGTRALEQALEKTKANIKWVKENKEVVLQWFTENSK

O=C(O)CC1S/C(=N/N=C/c2ccco2)NC1=O (stereo not drawn) [A3.254]
IC50 [1]: 48.1 µM

Cc1ccc(/C=N/NC(=O)c2cc(C)oc2C)o1 [A4.142]
IC50 [2]: 50.2 µM

COc1cc(-c2cc(C(=O)N/N=C/c3ccco3)[nH]n2)ccc1OC(C)C [A3.216a]
IC50 [3]: 36.1 µM

Cc1nc(NC(C)C(=O)O)c2nc(C)oc2n1 (stereo not drawn) [A9.108]
IC50 [4]: 65.8 µM

C=CC[N+]1=C(/C=C2\SC(c3ccccc3)=C(c3ccccc3)N2CC)S/C(=C/C=C2\SC(c3ccccc3)=C(c3ccccc3)N2CC)C1=O [A3.045]
IC50 [3]: 11.1 µM

COc1cc(Br)ccc1OCC(=O)N/N=C/C=C/c1ccco1 [A4.017]
IC50 [2]: 11 µM

O=C(NN=C(/C=C/c1ccccc1)c1ccccc1)c1cc2ccccc2cc1O [A4.028]
IC50 [2]: 13.7 µM

Cc1ccc(Cn2c(SCCC(=O)O)nc3c2c(=O)n(C)c(=O)n3C)cc1 [A8.025]
IC50 [5]: 28 µM

O=C(N/N=C/c1ccco1)c1cccc(NC(=O)c2ccccc2)c1 [A3.182]
IC50 [3]: 29.5 µM

Cc1ccc(/C=N/NC2=NC(=O)CS2)o1 [A3.159]
IC50 [3]: 22.6 µM

C/C(Cn1nnc([N+](=O)[O-])n1)=N/NC(=O)COc1ccccc1[N+](=O)[O-] [A3.010]
IC50 [3]: 3.4 µM

COC(=O)c1cc(-c2ccc(/C=C3\C(=O)N(CCCO)C(=O)C(C#N)=C3C)o2)ccc1Cl [A9.036]
IC50 [4]: 15.2 µM

Cc1ccc(S(=O)(=O)CNC(=S)c2ccc(Cl)c(Cl)c2)cc1 [A6.011]
IC50 (Table 6, read-out: IC50APN): 18 µM

Nc1nonc1-n1nnc(C(=O)N/N=C/c2ccco2)c1-c1ccccc1 [A4.135]
IC50 [2]: 46.6 µM

Nc1nc2nc(-c3ccco3)cc(C(F)(F)F)n2n1 [A3.195]
IC50 [3]: 32.1 µM

CCOc1ccc(-c2cc(C(=O)N/N=C/c3ccco3)[nH]n2)cc1OC [A3.201]
IC50 [3]: 33.4 µM

Cn1c(=O)c2c(ncn2CC(=O)N/N=C/C=C\c2ccco2)n(C)c1=O [A4.166]
IC50 [6]: 79.8 µM

COc1ccc(C2NCCS2)cc1 (stereo not drawn) [A3.035]
IC50 [3]: 9.5 µM

Cc1cc(C(=O)N/N=C/c2ccco2)[nH]n1 [A3.255]
IC50 [3]: 48.2 µM

Cc1ccc(/C=N/NC(=O)c2cccc(NC(=O)c3ccc(F)cc3)c2)o1 [A4.014]
IC50 [2]: 9.8 µM

COC(=O)c1cccc(-c2ccc(/C=C3\C(=O)N(CCO)C(=O)C(C#N)=C3C)o2)c1 [A13.004]
IC50 (Table 13, read-out: IC50APN): 6.3 µM

O=C1C=CC(=O)N1c1cc([N+](=O)[O-])ccc1F [A11.015]
IC50 (Table 11, read-out: IC50APN): 20.8 µM

CC1=C(C#N)C(=O)N(CCO)C(=O)/C1=C\c1ccc(-c2ccc(C)c(Cl)c2)o1 [A3.322]
IC50 [3]: 125 µM

Cc1cc(C)n(-c2nnc(N)nn2)n1 [A9.048]
IC50 [4]: 20.3 µM

Brc1cc2c(cc1Br)OCCOCCOCCOCCOCCO2 [A10.001]
IC50 (Table 10, read-out: IC50APN): 0.7 µM

COc1ccc(OC)c(-c2cc(C(=O)N/N=C/c3ccco3)[nH]n2)c1 [A4.127]
IC50 [2]: 43.2 µM

CC1CCCCN1S(=O)(=O)c1ccc(NC(=O)/C=C/c2ccco2)cc1 (stereo not drawn) [A3.103]
IC50 [3]: 19.9 µM

Cc1cccc(C)c1Nc1c(-c2ccccc2NC(=O)Nc2ccc(OC(F)(F)F)cc2)nc2c(C(=O)NCC(C)C)cccn12 [A8.027]
IC50 [5]: 31.4 µM

COC(=O)N/N=C(C)\C=C\c1ccco1 [A3.059]
IC50 [3]: 13.5 µM

COc1ccc2c(C)nc(Nc3nc(C)c4ccccc4c(=O)n3)nc2c1 [A9.018]
IC50 [4]: 8.9 µM

O=C(N/N=C/c1ccco1)c1ccccc1 [A4.120]
IC50 [2]: 37.7 µM

CN(C)CCCN1CCN(c2nc(N(C)CC(=O)O)c3ncn(Cc4ccc(C(F)(F)F)cc4)c3n2)CC1 [A3.137]
IC50 [3]: 23 µM

O=C(Cc1cccs1)N/N=C/C=C\c1ccco1 [A3.171]
IC50 [3]: 28 µM

O=C(N/N=C/c1cc(Br)cc(Br)c1OC(=O)c1ccccc1)/C(=C/c1ccc2c(c1)OCO2)NC(=O)c1ccccc1 [A4.052]
IC50 [2]: 19.8 µM

CCOc1ccc(Br)cc1C(=O)N/N=C/c1ccco1 [A3.155]
IC50 [3]: 25.8 µM

O=C(/C=C/c1ccco1)c1ccccc1 [A3.166]
IC50 [3]: 27.3 µM

CCOc1ccc(-c2cc(C(=O)N/N=C/c3ccco3)[nH]n2)cc1OC [A4.104]
IC50 [2]: 33.4 µM

CCOC(=O)c1ncn(Cc2ccccc2)c1N [A3.063]
IC50 [3]: 14 µM

Cc1cccc(C)c1NC(=S)NC(=O)c1cccs1 [A3.055]
IC50 [3]: 12.9 µM

N#CCCCCCCCCC(=O)NO [A12.069]
IC50 (Table 12, read-out: IC50APN): 80.6 µM

O=c1cc(CSc2nnc(-c3ccco3)c(-c3ccco3)n2)c2ccccc2[nH]1 [A9.107]
IC50 (Table 9, starred values = ID50, read-out: ID50 APN (values marked with *)): 65.1 µM

COc1ccc(C2NCCS2)cc1Br (stereo not drawn) [A3.078]
IC50 [3]: 16.4 µM

CSCCC1NC(=S)N(Cc2ccccc2)C1=O (stereo not drawn) [A8.012]
IC50 [5]: 14.1 µM

O=C(Nc1cccc(/N=C/c2cc(/N=N\c3ccccc3Cl)ccc2O)c1)c1ccco1 [A3.011]
IC50 [3]: 3.6 µM

CN(C)CCCN1CCN(c2nc(N(C)CC(=O)O)c3ncn(Cc4ccc(C(F)(F)F)cc4)c3n2)CC1 [A12.042]
IC50 (Table 12, read-out: IC50APN): 23 µM

CSc1nnc2n(/N=C/c3ccco3)cnn12 [A3.213]
IC50 [3]: 34.7 µM

O=C(N/C(=C\c1ccco1)C(=O)N1CCCC(CO)C1)c1ccccc1 (stereo not drawn) [A12.035]
IC50 (Table 12, read-out: IC50APN): 19 µM

O=C(N/N=C/c1ccco1)c1ccc(NC(=O)c2ccccc2Cl)cc1 [A4.103]
IC50 [2]: 32.5 µM

CC1CCN(S(=O)(=O)c2ccc3c(c2)C(Cl)(Cl)C(=O)N3)CC1 [A3.224]
IC50 [3]: 37.2 µM

O=C(N/N=C/c1cc(Cl)cc([N+](=O)[O-])c1O)c1ccccc1O [A11.039]
IC50 (Table 11, read-out: IC50APN): 5.8 µM

CCCOc1ccc(/C=C(\NC(=O)c2ccccc2)C(=O)N/N=C/c2ccco2)cc1 [A3.165]
IC50 [3]: 27.3 µM

O=C(Nc1ccccc1F)c1ccc([N+](=O)[O-])o1 [A3.281]
IC50 [3]: 62.4 µM

O=C(CC(=O)N/N=C/c1ccco1)N/N=C/c1ccco1 [A3.196]
IC50 [3]: 32.4 µM

CSCCC(Nc1ncnc2c1oc1ccccc12)C(=O)O (stereo not drawn) [A3.256]
IC50 [3]: 48.4 µM

CCOc1ccc(S(=O)(=O)N2CCCCC2)cc1-c1nc2c(C(C)(C)C)nn(C)c2c(=O)[nH]1 [A3.124]
IC50 [3]: 21.8 µM

CN1C/C(=C/c2ccco2)C(=O)/C(=C/c2ccco2)C1 [A9.046]
IC50 [4]: 19.2 µM

Cc1c(Cl)cccc1NC(=O)CCC(=O)N/N=C/c1ccco1 [A4.119]
IC50 [2]: 36.6 µM

CCOC(=O)c1nc[nH]c1N [A3.007]
IC50 [1]: 2.6 µM

CC(C(=O)N/N=C/c1ccco1)n1nnc2ccccc21 (stereo not drawn) [A4.176]
IC50 [6]: 146 µM

CCOC(=O)c1cc(-c2ccc(/C=C3\C(=O)N(CCCO)C(=O)C(C#N)=C3C)o2)ccc1Cl [A3.233]
IC50 [3]: 41 µM

COc1cccc(/C=N/NC(=O)c2ccn(C)n2)c1O [A3.328]
IC50 [3]: 142 µM

Cc1nc(NC(C)C(=O)O)c2nc(C)oc2n1 (stereo not drawn) [A3.290]
IC50 [3]: 65.8 µM

COc1cc(/C=N/NC(=O)/C(=C/c2cccs2)NC(=O)c2ccccc2)cc([N+](=O)[O-])c1O [A4.076]
IC50 [2]: 25.1 µM

COc1cc(C(=O)NCC(=O)N/N=C\c2ccc(C)o2)cc(OC)c1OC [A3.335]
IC50 [1]: 161 µM

CC(C)COc1ccc(C(=O)N/C(=C\c2ccco2)C(=O)N2CCOCC2)cc1 [A9.027]
IC50 [4]: 13.1 µM

CCCCCC(=O)N/N=C/c1ccco1 [A4.085]
IC50 [2]: 26.7 µM

CCCC1NC(=S)N(c2ccccc2)C1=O (stereo not drawn) [A3.332]
IC50 [1]: 154 µM

CCN(CC)c1ccc(/C=C(\NC(=O)c2ccccc2)C(=O)N/N=C/c2ccc(O)c([N+](=O)[O-])c2)cc1 [A4.011]
IC50 [2]: 7.6 µM

C=CCN1C(=O)C(C#N)=C(C)/C(=C\c2ccc(-c3cc(C)c(C)cc3[N+](=O)[O-])o2)C1=O [A11.020]
IC50 (Table 11, read-out: IC50APN): 29.3 µM

O=C(ON1C(=O)CCC1=O)C1CCC(=O)N1C(=O)OCc1ccccc1 (stereo not drawn) [A12.015]
IC50 (Table 12, read-out: IC50APN): 7.5 µM

O=C(N/N=C/c1ccco1)c1ccc(NC(=O)c2ccccc2Cl)cc1 [A3.199]
IC50 [3]: 32.5 µM

N/C(=N/OS(=O)(=O)c1ccc(C(F)(F)F)cc1)C1CSCCS1 (stereo not drawn) [A9.031]
IC50 [4]: 13.4 µM
